Measurements taken from patent US4460560A, “Drug delivery by polymeric carriers” (University of Southern California, priority 1982, dated 1984).

Experiments:
[1] = test system: hepatocytes; test: Cell viability by 51Cr release; assay type: cell-based, rat; design: concentration or dose not given beside the values
Description: (§1) Cytotoxic effects of the microspheres of EXAMPLE 3 and free doxorubicin were investigated using short-term monolayer cultures established from the livers of normal rats and rats which had been fed 2-AAF or DEN. Cell viability was evaluated by trypan blue exclusion and confirmed by ^51 Cr release.
(§2) Male Fischer 344 rats weighing 150 to 200 g were used to obtain viable hepatocytes. The animals were fed a basal, high-casein diet. A 12-hr light cycle was maintained in the animal colony and water was given ad libitum. Carcinogen altered hepatocytes were produced by feeding the animals a diet containing 0.02% 2-AAF (w/w) or 80 ppm DEN in the drinking water for 8 to 12 weeks. Cells from such animals were used in the cytotoxicity and cell viability studies reported herein.
(§3) Liver cell suspensions were prepared by the collagenase perfusion technique. Cell suspensions were passed through sterile gauze filters to remove large tissue pieces. Viability was assessed by trypan blue exclusion and perfusates containing less than 65% viable cells were not used. Cells were plated at density of 1×10^6 viable cells per plastic culture flask of 25 cm^2 surface area in 4 ml of L-15 medium containing 3.5 mg/ml 4-(2-hydroxyethyl)-1-piperazineethanesulfonic acid and 2 mg/ml bovine serum albumin. The medium was supplemented with 10% fetal bovine serum, 100 μg/ml penicillin, and streptomycin. Following a 2 hour attachment period at 37° in a water-saturated 5% CO2 -95% air incubator, the cells were washed twice with medium and placed in 4ml of fresh medium supplemented with 200 μl PBS, free doxorubicin, uncoupled microspheres, or the polymer bound drug. At various times 0.8 ml of trypan blue was added to each flask and incubated for 10 minutes at 37°. The medium was removed and the number of viable cells was counted.
^51 Cr in the form of sodium chromate in sterile isotonic saline was added to the cell suspensions at a concentration of 100 μCi/0.5 ml/5×10^6 cells. The cells were then incubated at 37° for 1 hour with constant shaking. After labeling, the supernatent was removed by centrifugation at 350×g for 5 min and the cells were washed a minimum of 5 times in L-15 medium. Labeled cells were then aliquoted into culture flasks and allowed to attach as previously described. At various times 250 μl aliquots were removed from the flasks and counted in a Packard Gamma Counter. As a control for complete ^51 Cr release, 0% cell viability, cells were detached from the culture flask surface with 10% trypsin and subsequently lysed with 0.5% Nonidet P-40 followed by sonication. Total ^51 Cr release was obtained by subtraction of the residual radioactivity which remained associated with the cell debris.

[2] = test system: hepatocytes; test: Cell viability by trypan blue exclusion (Table 2); assay type: cell-based, rat; design: concentration or dose not given beside the values
Description: as §1, §2, §3

[3] = Time-survival response, trypan blue viability; assay type: cell-based; settings: rat, hepatocytes, 10^-6 M
Source text: as §2, §3
These studies are not continued for longer than 24 hours due to the rapid natural decline in viability observed with untreated cells after prolonged cell culture. The viability of untreated control cultures remained constant throughout each experiment. […] However, cell viability in the presence of free drug was not affected during the first 4 hours of treatment. Alternatively, at 24 hours only 10% of the cells treated with free drug remained viable while 64% of those treated with the bound drug were unaffected. Cell viability was not influenced by addition of uncoupled microspheres to the cultures.

[4] = test system: hepatocytes made resistant by 2-AAF feeding; test: Viability of carcinogen altered drug-resistant hepatocytes; assay type: cell-based, rat; settings: for viability at 1 µM: 10^-6 M
Source text: as §2, §3
Hepatocytes in perfusates obtained from rats which had been fed the dietary carcinogen 2-AAF are highly resistant to the cytocidal effects of doxorubicin. Experiments were performed to determine the toxicity of the doxorubicin microspheres with regard to these resistant hepatocytes. […] Concentrations of free doxorubicin must be approximately 100-fold higher than the polymer-bound drug to decrease viability to 50%. The most significant differences in cytotoxicity occurred at a concentration of 10^-5 M where the free drug treated hepatocytes remained unaffected and polymer-bound doxorubicin decreased viability to 47%. Subsequent experiments were done with 10^-6 M, free or bound drug, to approach clinically relevant concentrations.
Cell kill kinetics of hepatocytes made resistant by 2-AAF feeding are depicted in TABLE 5. […] At 24 hours, only 67% of the cells remained viable. When hepatocytes made resistant by DEN feeding were used, the same results for free and polymer-bound Adr at 10^-6 M were obtained.

[5] = test system: hepatocytes made resistant by DEN feeding; test: as above; assay type: cell-based, rat; settings: 24 hours; 10^-6 M
Source text: as §2
Liver cell suspensions were prepared by the collagenase perfusion technique. Cell suspensions were passed through sterile gauze filters to remove large tissue pieces. Viability was assessed by trypan blue exclusion and perfusates containing less than 65% viable cells were not used. Cells were plated at density of 1×10^6 viable cells per plastic culture flask of 25 cm^2 surface area in 4 ml of L-15 medium containing 3.5 mg/ml 4-(2-hydroxyethyl)-1-piperazineethanesulfonic acid and 2 mg/ml bovine serum albumin. The medium was supplemented with 10% fetal bovine serum, 100 μg/ml penicillin, and streptomycin. […] The medium was removed and the number of viable cells was counted. […]

[6] = test system: CCRF-CEM/Vbl 100; test: Cytostatic assay, IC50 determination; assay type: cell-based; settings: Homo sapiens, after 4 to 6 doubling times, average of three determinations
Description: (§4) In order to test the cytostatic activity of the microspheres, IC50 determinations were made with both the free drug and the drug-polymer complexes. All cell lines were maintained in suspension cultures in RPMI-1640 medium supplemented with the 2% fetal calf serum, 8% newborn calf serum, 0.5 mg/ml penicillin-streptomycin, and 0.015 mg/ml fungizone. The cells were diluted to 40,000 cells/assay/1.8 ml medium and an amount of free doxorubicin, doxorubicin-microspheres or plain microspheres was added in 0.2 ml of phosphate buffered saline. After 4 to 6 doubling times had elapsed, the remaining cells were counted on a Coulter counter. A ratio of the number of cells after incubation per the number of cells originally introduced (Nt/No) was obtained. The drug concentration required for 50% inhibition of cell growth (IC50) was calculated according to the formula [formula]

[7] = test system: CCRF-CEM/Vbl 500; test: Cytostatic assay, IC50 determination; assay type: cell-based; settings: Homo sapiens, after 4 to 6 doubling times, average of three determinations
Description: as §4

[8] = test system: CCRF-CEM; test: Cytostatic assay, IC50 determination; assay type: cell-based; settings: Homo sapiens, after 4 to 6 doubling times, average of three determinations
Description: as §4

[9] = test system: L1210; test: Cytostatic assay, IC50 determination; assay type: cell-based; settings: Mus musculus, after 4 to 6 doubling times, average of three determinations
Description: as §4

[10] = test system: S-180; test: Cytostatic assay, IC50 determination; assay type: cell-based; settings: after 4 to 6 doubling times, average of three determinations
Description: as §4

[11] = test system: CEM/Vbl 100; test: Growth inhibition study; assay type: cell-based, human; settings: 3-6 doubling times
Description: (§5) Cell lines used were the human leukemia clones CCRF-CEM/Vbl 500 and CCRF-CEM/Vbl 100 and rat liver cancer cells (RLC). All cultures were maintained in RPMI-1640 medium supplemented with fetal calf serum (2%), newborn calf serum (8%), penicillin-streptomycin (0.5 mg/ml), and fungizone (0.015 mg/ml) (Flow Laboratories Inc.). Suspension cultures were diluted to 4×10^4 cells/assay/1.8 ml medium and attached cell lines were plated at 2.5×10^5 cells/25 cm^2 growth area/3.6 ml medium. Appropriate quantities of free doxorubicin, microsphere coupled doxorubicin, plain polyglutaraldehyde microspheres, or PBS, were added and the assays were incubated for 3-6 doubling times at 37° in a 5% CO2 - 95% air incubator. Cells were then counted on a Model Zb Coulter counter and a ratio of total number of cells after incubation per number of cells originally introduced (Nt /No) was obtained.
(§6) The cell lines CEM/Vbl 100 and CEM/Vbl 500 were used in cytostatic assays to determine differences in growth inhibition properties between free doxorubicin and polymer-bound drug. Both cell lines are resistant to the effects of vinca alkaloids and are cross-resistant to Adr. […] However, using 10^-7 M of the coupled drug, the growth inhibition for both cell lines is greater than 50%. At 10^-8 M, polymer bound doxorubicin inhibits growth 4-10 times more effectively than free drug. […] Each experiment was performed three times and drug concentrations were tested in duplicate.

[12] = test system: CEM/Vbl 500; test: Growth inhibition study; assay type: cell-based, human; settings: Table 7, CEM/Vbl 100
Description: as §5, §6

[13] = test system: rat liver cancer cell line RLC; test: Growth inhibition study; assay type: cell-based
Description: as §5
The cytostatic activity of the drug polymer complex of EXAMPLE 3 was further investigated using the rat liver cancer cell line RLC. […] Furthermore, the Adr-PGLs retained growth inhibition properties at concentrations as low as 1×10^-9 M.

[14] = Homo sapiens, CEM/VBL100, 10^-5 M
[15] = Homo sapiens, CEM/VBL100, 10^-6 M
[16] = Homo sapiens, CEM/VBL100, 10^-7 M
[17] = Homo sapiens, CEM/VBL100, 10^-8 M
[18] = Homo sapiens, CEM/VBL100, 10^-9 M
[19] = Homo sapiens, CEM/VBL100, 10^-10 M

With `COc1cccc2c1C(=O)c1c(O)c3c(c(O)c1C2=O)C[C@@](O)(C(=O)CO)C[C@@H]3O[C@H]1C[C@H](N)[C@H](O)[C@H](C)O1` [Free doxorubicin, doxorubicin] the “Percent viability measured by Intracellular CR^51” value ([1]; incubation time 3 hr) was 100%, the “Percent viability measured by Intracellular CR^51” value ([1]; incubation time 5 hr) was 96% and the “Percent viability measured by Intracellular CR^51” value ([1]; incubation time 8 hr) was 86%. The “Percent viability measured by Intracellular CR^51” value ([1]; incubation time 12 hr) was 75%, the “Percent viability measured by Intracellular CR^51” value ([1]; incubation time 18 hr) was 57% and the “Percent viability measured by Dye Exclusion” value ([2]; incubation time 3 hr) was 100%. For the same compound, the “Percent viability measured by Dye Exclusion” value ([2]; incubation time 5 hr) was 99%, the “Percent viability measured by Dye Exclusion” value ([2]; incubation time 8 hr) was 81% and the “Percent viability measured by Dye Exclusion” value ([2]; incubation time 12 hr) was 72%. The “Percent viability measured by Dye Exclusion” value ([2]; incubation time 18 hr) was 59%, the viability at 2 h, 1 µM ([3]; 2 hours) was 99% and the viability at 4 h, 1 µM ([3]; 4 hours) was 98%. The viability at 6 h, 1 µM ([3]; 6 hours) was 91%, the viability at 8 h, 1 µM ([3]; 8 hours) was 81% and the viability at 12 h, 1 µM ([3]; 12 hours) was 72%. For the same compound, the viability at 18 h, 1 µM ([3]; 18 hours) was 59%, the viability at 24 h, 1 µM ([3]; 24 hours) was 10% and the “% Viability” value ([4]; 10^-5 M, 24-hr exposure, survival of attached cells compared to controls) was “unaffected”. For the same compound, the “% Viability” value ([4]; 24 hours, 10^-6 M (Table 5)) was “no detectable killing effect”, the viability at 100 µM ([4]; Rattus norvegicus, Hepatocyte, 10^-4 M, 24-hr exposure, survival of attached cells compared to controls) was 68% and the viability at 10 µM ([4]; Rattus norvegicus, Hepatocyte, 10^-5 M, 24-hr exposure, survival of attached cells compared to controls) was 100%. For the same compound, the viability at 1 µM ([4]; Rattus norvegicus, Hepatocyte, 24-hr exposure, survival of attached cells compared to controls (Table 3)) was 100%, the viability at 0.1 µM ([4]; Rattus norvegicus, Hepatocyte, 10^-7 M, 24-hr exposure, survival of attached cells compared to controls) was 100% and the viability at 1 µM ([4]; Rattus norvegicus, Hepatocyte, 2 hours) was 100%. The viability at 1 µM ([4]; Rattus norvegicus, Hepatocyte, 3 hours) was 100%, the viability at 1 µM ([4]; Rattus norvegicus, Hepatocyte, 4 hours) was 100% and the viability at 1 µM ([4]; Rattus norvegicus, Hepatocyte, 6 hours) was 100%. It also gave a viability at 1 µM ([4]; Rattus norvegicus, Hepatocyte, 8 hours) of 100%, a viability at 1 µM ([4]; Rattus norvegicus, Hepatocyte, 16 hours) of 100% and a viability at 1 µM ([4]; Rattus norvegicus, Hepatocyte, 22 hours) of 100%. For the same compound, the viability [5] was “no killing effect”, the IC50 [6] was 0.39 µM and the IC50 [7] was 0.32 µM. For the same compound, the IC50 [8] was 0.011 µM, the IC50 [9] was 0.028 µM and the IC50 [10] was 0.023 µM. The “% Inhibition of growth” value ([11]; 10^-7 M, listed as Free Drug) was 22%, the inhibition at 10 µM [11, 14] was 98% and the inhibition at 1 µM [11, 15] was 86%. For the same compound, the inhibition at 0.1 µM [11, 16] was less than 22%, the inhibition at 0.01 µM [11, 17] was 3% and the inhibition at 0.001 µM [11, 18] was 5%. For the same compound, the inhibition at 0.0001 µM [11, 19] was 0%, the “% Inhibition of growth” value ([12]; 10^-7 M, listed as Free Drug) was 32% and the inhibition at 10 µM [12, 14] was 81%. The inhibition at 1 µM [12, 15] was 67%, the inhibition at 0.1 µM [12, 16] was less than 32% and the inhibition at 0.01 µM [12, 17] was 14%. The inhibition at 0.001 µM [12, 18] was 0%, the inhibition at 0.0001 µM [12, 19] was 0% and the inhibition at 10 pM ([12]; Homo sapiens, CEM/VBL100, 10^-11 M) was 0%. The inhibition at 1000 µM ([13]; 10^-3 M) was 100%, the inhibition at 100 µM ([13]; 10^-4 M) was 80% and the inhibition at 10 µM ([13]; 10^-5 M) was 36%. It also gave an inhibition at 1 µM ([13]; 10^-6 M) of 22%, an inhibition at 0.1 µM ([13]; 10^-7 M) of 0% and an inhibition at 0.01 µM ([13]; 10^-8 M) of 0%. For the same compound, the inhibition at 0.001 µM ([13]; 10^-9 M) was 0%, the inhibition at 0.0001 µM ([13]; 10^-10 M) was 0% and the IC50 ([13]; RLC, read-out: 50% inhibitory concentration (IC50)) was 18 µM.
